Reference: PubChem BioAssay AID1918993 (Molecular Pharmacology Branch, DTP, NCI, 2023)

System: 233499-124-R-J3-PDC complex spheroid growth
Experiment: Anticancer human tumor 233499-124-R-J3-PDC patient-derived colon adenocarcinoma cell line growth inhibition [AhR]
Conditions: for IC50: curve of first compound; for viability, T/C: stronger effect = lower value
In short: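 Agents were dosed in half-log steps down from roughly clinical Cmax, or from 10 microM where Cmax was unknown, alone and with AhR antagonists. Read-out: percent test/control growth of tumor spheroids containing HUVEC and MSC stromal cells.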

[1] = second compound 0.1 µM, first compound 0.000949 µM
[2] = second compound 0.1 µM, first compound 0.003 µM
[3] = second compound 0.1 µM, first compound 0.00949 µM
[4] = second compound 0.1 µM, first compound 0.03 µM
[5] = second compound 0.1 µM, first compound 0.0949 µM
[6] = second compound 0.1 µM, first compound 0.3 µM
[7] = second compound 0.316 µM, first compound 0.000949 µM
[8] = second compound 0.316 µM, first compound 0.003 µM
[9] = second compound 0.316 µM, first compound 0.00949 µM
[10] = second compound 0.316 µM, first compound 0.03 µM
[11] = second compound 0.316 µM, first compound 0.0949 µM
[12] = second compound 0.316 µM, first compound 0.3 µM
[13] = second compound 1 µM, first compound 0.000949 µM
[14] = second compound 1 µM, first compound 0.003 µM
[15] = second compound 1 µM, first compound 0.00949 µM
[16] = second compound 1 µM, first compound 0.03 µM
[17] = second compound 1 µM, first compound 0.0949 µM
[18] = second compound 1 µM, first compound 0.3 µM
[19] = second compound 3.16 µM, first compound 0.000949 µM
[20] = second compound 3.16 µM, first compound 0.003 µM
[21] = second compound 3.16 µM, first compound 0.00949 µM
[22] = second compound 3.16 µM, first compound 0.03 µM
[23] = second compound 3.16 µM, first compound 0.0949 µM
[24] = second compound 3.16 µM, first compound 0.3 µM
[25] = second compound 10 µM, first compound 0.000949 µM
[26] = second compound 10 µM, first compound 0.003 µM
[27] = second compound 10 µM, first compound 0.00949 µM
[28] = second compound 10 µM, first compound 0.03 µM
[29] = second compound 10 µM, first compound 0.0949 µM
[30] = second compound 10 µM, first compound 0.3 µM
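Also: spheroids exposed to agents for seven days before reading.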

CC(C)CC(NC(=O)C(Cc1ccccc1)NC(=O)c1cnccn1)B(O)O (stereo not given) + Cc1cncc(-c2nc(NCCc3c[nH]c4ccccc34)c3ncn(C(C)C)c3n2)c1
IC50 (second compound 0.1 µM): 15.4 nM | IC50 (second compound 0.316 µM): 13.3 nM | IC50 (second compound 1 µM): 13.2 nM | IC50 (second compound 3.16 µM): 12.9 nM | IC50 (second compound 10 µM): < 0.949 nM | viability, T/C [1]: 98.3% | viability, T/C [2]: 95.1% | viability, T/C [3]: 86.4% | viability, T/C [4]: 0.15% | viability, T/C [5]: 0.05% | viability, T/C [6]: 0.13% | viability, T/C [7]: 92% | viability, T/C [8]: 86.9% | viability, T/C [9]: 70.9% | viability, T/C [10]: 0.12% | viability, T/C [11]: 0.04% | viability, T/C [12]: 0.13% | viability, T/C [13]: 92.1% | viability, T/C [14]: 89% | viability, T/C [15]: 69.7% | viability, T/C [16]: 0.12% | viability, T/C [17]: 0.05% | viability, T/C [18]: 0.13% | viability, T/C [19]: 86.2% | viability, T/C [20]: 82.1% | viability, T/C [21]: 68.3% | viability, T/C [22]: 0.11% | viability, T/C [23]: 0.04% | viability, T/C [24]: 0.9% | viability, T/C [25]: 8.49% | viability, T/C [26]: 5.28% | viability, T/C [27]: 4.74% | viability, T/C [28]: 0.17% | viability, T/C [29]: 0.15% | viability, T/C [30]: 0.21%

CCc1c2c(nc3ccc(O)cc13)-c1cc3c(c(=O)n1C2)COC(=O)[C@]3(O)CC + Cc1cncc(-c2nc(NCCc3c[nH]c4ccccc34)c3ncn(C(C)C)c3n2)c1
IC50 (second compound 0.1 µM): > 300 nM | IC50 (second compound 0.316 µM): > 300 nM | IC50 (second compound 1 µM): > 300 nM | IC50 (second compound 3.16 µM): > 300 nM | IC50 (second compound 10 µM): < 0.949 nM | viability, T/C [1]: 97% | viability, T/C [2]: 99.5% | viability, T/C [3]: 77.6% | viability, T/C [4]: 77.5% | viability, T/C [5]: 71.1% | viability, T/C [6]: 91.8% | viability, T/C [7]: 101% | viability, T/C [8]: 89.9% | viability, T/C [9]: 71.9% | viability, T/C [10]: 67.2% | viability, T/C [11]: 66.4% | viability, T/C [12]: 67.6% | viability, T/C [13]: 86.4% | viability, T/C [14]: 89.1% | viability, T/C [15]: 70% | viability, T/C [16]: 81% | viability, T/C [17]: 94.3% | viability, T/C [18]: 64.3% | viability, T/C [19]: 90% | viability, T/C [20]: 96.2% | viability, T/C [21]: 72.3% | viability, T/C [22]: 86.1% | viability, T/C [23]: 70% | viability, T/C [24]: 65.3% | viability, T/C [25]: 10.4% | viability, T/C [26]: 13.7% | viability, T/C [27]: 21.5% | viability, T/C [28]: 17% | viability, T/C [29]: 9.13% | viability, T/C [30]: 7.22%

COc1cc(Nc2ncc3c(n2)-c2ccc(Cl)cc2C(c2c(F)cccc2OC)=NC3)ccc1C(=O)O + Cc1cncc(-c2nc(NCCc3c[nH]c4ccccc34)c3ncn(C(C)C)c3n2)c1
IC50 (second compound 0.1 µM): > 10000 nM | IC50 (second compound 0.316 µM): > 10000 nM | IC50 (second compound 1 µM): > 10000 nM | IC50 (second compound 3.16 µM): > 10000 nM | IC50 (second compound 10 µM): < 31.6 nM | viability, T/C (second compound 0.1 µM, first compound 0.0316 µM): 81% | viability, T/C (second compound 0.1 µM, first compound 0.1 µM): 71.7% | viability, T/C (second compound 0.1 µM, first compound 0.316 µM): 81.5% | viability, T/C (second compound 0.1 µM, first compound 1 µM): 100% | viability, T/C (second compound 0.1 µM, first compound 3.16 µM): 89% | viability, T/C (second compound 0.1 µM, first compound 10 µM): 84.2% | viability, T/C (second compound 0.316 µM, first compound 0.0316 µM): 84.8% | viability, T/C (second compound 0.316 µM, first compound 0.1 µM): 56.9% | viability, T/C (second compound 0.316 µM, first compound 0.316 µM): 83.2% | viability, T/C (second compound 0.316 µM, first compound 1 µM): 76.9% | viability, T/C (second compound 0.316 µM, first compound 3.16 µM): 75.6% | viability, T/C (second compound 0.316 µM, first compound 10 µM): 82.5% | viability, T/C (second compound 1 µM, first compound 0.0316 µM): 78% | viability, T/C (second compound 1 µM, first compound 0.1 µM): 68.4% | viability, T/C (second compound 1 µM, first compound 0.316 µM): 77.8% | viability, T/C (second compound 1 µM, first compound 1 µM): 77.9% | viability, T/C (second compound 1 µM, first compound 3.16 µM): 70.1% | viability, T/C (second compound 1 µM, first compound 10 µM): 87.6% | viability, T/C (second compound 3.16 µM, first compound 0.0316 µM): 60.5% | viability, T/C (second compound 3.16 µM, first compound 0.1 µM): 50.9% | viability, T/C (second compound 3.16 µM, first compound 0.316 µM): 76.8% | viability, T/C (second compound 3.16 µM, first compound 1 µM): 67.2% | viability, T/C (second compound 3.16 µM, first compound 3.16 µM): 58% | viability, T/C (second compound 3.16 µM, first compound 10 µM): 71.7% | viability, T/C (second compound 10 µM, first compound 0.0316 µM): 8.18% | viability, T/C (second compound 10 µM, first compound 0.1 µM): 22.4% | viability, T/C (second compound 10 µM, first compound 0.316 µM): 26.9% | viability, T/C (second compound 10 µM, first compound 1 µM): 10.4% | viability, T/C (second compound 10 µM, first compound 3.16 µM): 29.2% | viability, T/C (second compound 10 µM, first compound 10 µM): 39.9%
